Test results from ChEMBL document CHEMBL1909046, “DrugMatrix in vitro pharmacology data”.

Tested on: not listed separately
Test: DRUGMATRIX: ATPase, Na+/K+ enzyme inhibition (substrate: ATP)
Assay type: tissue-based, Sus scrofa, Heart
Details: Not Active = under 50% inhibition at 10 µM
With `CCc1ccc(CCOc2ccc(CC3SC(=O)NC3=O)cc2)nc1` (stereo not given) [PIOGLITAZONE] the IC50 was “Not Active” and the Ki was “Not Active”.
For `CCCNC(C)C(=O)Nc1ccccc1C` (stereo not given) [PRILOCAINE], the IC50 was “Not Active” and the Ki was “Not Active”.
For `CCN(CC)CCNC(=O)c1ccc(N)cc1` [PROCAINAMIDE], the IC50 was “Not Active” and the Ki was “Not Active”.
With `CCN(CC)CCCC(C)Nc1c2ccc(Cl)cc2nc2ccc(OC)cc12` (stereo not given) [QUINACRINE] the IC50 was “Not Active” and the Ki was “Not Active”.
For `C[C@]12C=CC(=O)C=C1CC[C@H]1[C@@H]3C[C@@H](O)[C@](O)(C(=O)CO)[C@@]3(C)C[C@H](O)[C@@]12F` [TRIAMCINOLONE], the IC50 was “Not Active” and the Ki was “Not Active”.

Biological target: T1, Vasoactive intestinal polypeptide receptor 1 (Homo sapiens, UniProt P32241); also: in other assays of this panel Not Active means under 50% inhibition at 10 µM
T1 sequence (P32241 whole entry): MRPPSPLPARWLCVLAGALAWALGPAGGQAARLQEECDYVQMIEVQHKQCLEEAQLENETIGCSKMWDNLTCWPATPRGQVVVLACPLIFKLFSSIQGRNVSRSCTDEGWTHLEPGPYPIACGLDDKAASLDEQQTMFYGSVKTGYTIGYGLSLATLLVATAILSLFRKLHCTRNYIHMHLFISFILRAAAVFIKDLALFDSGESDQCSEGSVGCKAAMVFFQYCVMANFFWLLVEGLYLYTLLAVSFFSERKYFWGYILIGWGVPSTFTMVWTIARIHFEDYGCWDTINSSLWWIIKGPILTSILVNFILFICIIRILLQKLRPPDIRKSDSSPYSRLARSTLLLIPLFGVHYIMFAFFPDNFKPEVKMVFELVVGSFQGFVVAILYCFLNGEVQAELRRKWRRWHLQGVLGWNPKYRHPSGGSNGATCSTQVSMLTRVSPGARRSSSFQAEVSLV
Assay type: cell membranes, Membrane
Details: ht-29
For `CCc1ccc(CCOc2ccc(CC3SC(=O)NC3=O)cc2)nc1` (stereo not given) [PIOGLITAZONE], the IC50 was “Not Active”.
In the case of `CCCNC(C)C(=O)Nc1ccccc1C` (stereo not given) [PRILOCAINE], the IC50 is reported as “Not Active”.
With `CCN(CC)CCNC(=O)c1ccc(N)cc1` [PROCAINAMIDE] the IC50 was “Not Active”.
For `CCN(CC)CCCC(C)Nc1c2ccc(Cl)cc2nc2ccc(OC)cc12` (stereo not given) [QUINACRINE], the IC50 was “Not Active”.
With `C[C@]12C=CC(=O)C=C1CC[C@H]1[C@@H]3C[C@@H](O)[C@](O)(C(=O)CO)[C@@]3(C)C[C@H](O)[C@@]12F` [TRIAMCINOLONE] the IC50 was “Not Active”.

Biological target: Nitric oxide synthase 1 (Rattus norvegicus, UniProt P29476); also: in other assays of this panel Not Active means under 50% inhibition at 10 µM
Sequence (P29476 whole entry): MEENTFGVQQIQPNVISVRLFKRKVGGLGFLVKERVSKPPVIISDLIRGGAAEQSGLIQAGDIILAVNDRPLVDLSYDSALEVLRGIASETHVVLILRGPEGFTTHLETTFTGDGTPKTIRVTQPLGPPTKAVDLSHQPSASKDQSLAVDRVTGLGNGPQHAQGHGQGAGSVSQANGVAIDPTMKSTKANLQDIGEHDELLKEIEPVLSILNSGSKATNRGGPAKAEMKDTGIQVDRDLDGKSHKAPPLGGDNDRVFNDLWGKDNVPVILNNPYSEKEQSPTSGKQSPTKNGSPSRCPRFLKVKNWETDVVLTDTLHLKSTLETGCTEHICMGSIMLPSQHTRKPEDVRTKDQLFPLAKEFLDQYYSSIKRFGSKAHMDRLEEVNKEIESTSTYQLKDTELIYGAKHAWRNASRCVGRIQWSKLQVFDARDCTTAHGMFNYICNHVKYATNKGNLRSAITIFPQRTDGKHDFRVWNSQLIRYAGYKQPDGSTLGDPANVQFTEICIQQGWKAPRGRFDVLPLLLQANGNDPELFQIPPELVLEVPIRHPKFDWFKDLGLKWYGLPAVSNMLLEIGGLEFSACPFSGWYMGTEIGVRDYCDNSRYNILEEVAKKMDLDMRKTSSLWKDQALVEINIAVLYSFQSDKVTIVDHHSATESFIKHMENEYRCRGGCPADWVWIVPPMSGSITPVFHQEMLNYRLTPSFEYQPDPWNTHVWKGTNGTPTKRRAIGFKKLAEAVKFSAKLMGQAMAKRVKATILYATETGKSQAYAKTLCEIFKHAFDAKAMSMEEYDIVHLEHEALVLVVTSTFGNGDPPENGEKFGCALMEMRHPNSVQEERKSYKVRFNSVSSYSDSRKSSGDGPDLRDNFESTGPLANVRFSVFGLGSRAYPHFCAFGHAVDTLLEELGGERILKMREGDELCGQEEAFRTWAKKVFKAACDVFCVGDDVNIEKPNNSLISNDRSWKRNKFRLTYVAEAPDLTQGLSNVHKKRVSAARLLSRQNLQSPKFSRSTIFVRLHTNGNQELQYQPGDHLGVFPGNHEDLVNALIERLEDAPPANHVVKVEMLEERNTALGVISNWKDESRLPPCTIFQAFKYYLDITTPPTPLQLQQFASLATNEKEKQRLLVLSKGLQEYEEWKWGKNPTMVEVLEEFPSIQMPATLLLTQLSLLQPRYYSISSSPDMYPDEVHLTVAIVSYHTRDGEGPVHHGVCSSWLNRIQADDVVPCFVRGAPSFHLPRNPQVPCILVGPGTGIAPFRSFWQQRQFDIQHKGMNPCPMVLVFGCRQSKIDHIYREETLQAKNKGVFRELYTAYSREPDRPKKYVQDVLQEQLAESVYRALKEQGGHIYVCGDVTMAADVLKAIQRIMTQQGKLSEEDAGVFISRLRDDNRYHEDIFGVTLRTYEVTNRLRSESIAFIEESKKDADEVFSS
Assay type: tissue-based, Cerebellum
Details: not given
For `CCc1ccc(CCOc2ccc(CC3SC(=O)NC3=O)cc2)nc1` (stereo not given) [PIOGLITAZONE], the IC50 was “Not Active”.
With `CCCNC(C)C(=O)Nc1ccccc1C` (stereo not given) [PRILOCAINE] the IC50 was “Not Active”.
In the case of `CCN(CC)CCNC(=O)c1ccc(N)cc1` [PROCAINAMIDE], the IC50 is reported as “Not Active”.
With `CCN(CC)CCCC(C)Nc1c2ccc(Cl)cc2nc2ccc(OC)cc12` (stereo not given) [QUINACRINE] the IC50 was “Not Active”.
For `C[C@]12C=CC(=O)C=C1CC[C@H]1[C@@H]3C[C@@H](O)[C@](O)(C(=O)CO)[C@@]3(C)C[C@H](O)[C@@]12F` [TRIAMCINOLONE], the IC50 was “Not Active”.

Biological target: T2, Progesterone receptor (Bos taurus, UniProt Q690N0)
T2 sequence (Q690N0 whole entry): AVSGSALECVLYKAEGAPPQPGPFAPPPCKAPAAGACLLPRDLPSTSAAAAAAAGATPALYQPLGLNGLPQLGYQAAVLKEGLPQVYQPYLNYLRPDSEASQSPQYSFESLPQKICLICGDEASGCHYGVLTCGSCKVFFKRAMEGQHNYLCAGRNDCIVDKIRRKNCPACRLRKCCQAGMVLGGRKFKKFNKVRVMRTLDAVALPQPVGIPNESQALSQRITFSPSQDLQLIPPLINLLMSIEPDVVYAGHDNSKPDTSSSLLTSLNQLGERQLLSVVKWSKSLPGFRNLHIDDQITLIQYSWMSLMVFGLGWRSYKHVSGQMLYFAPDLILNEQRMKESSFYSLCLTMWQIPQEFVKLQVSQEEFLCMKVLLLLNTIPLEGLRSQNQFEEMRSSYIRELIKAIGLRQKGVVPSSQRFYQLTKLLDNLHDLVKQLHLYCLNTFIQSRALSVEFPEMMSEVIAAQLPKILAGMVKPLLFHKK
Test: DRUGMATRIX: Progesterone radioligand binding (ligand: [3H] R-5020)
Assay type: tissue-based, Uterus
Details: Not Active = under 50% inhibition at 10 µM
With `CCc1ccc(CCOc2ccc(CC3SC(=O)NC3=O)cc2)nc1` (stereo not given) [PIOGLITAZONE] the IC50 was “Not Active”.
In the case of `CCCNC(C)C(=O)Nc1ccccc1C` (stereo not given) [PRILOCAINE], the IC50 is reported as “Not Active”.
For `CCN(CC)CCNC(=O)c1ccc(N)cc1` [PROCAINAMIDE], the IC50 was “Not Active”.
With `CCN(CC)CCCC(C)Nc1c2ccc(Cl)cc2nc2ccc(OC)cc12` (stereo not given) [QUINACRINE] the IC50 was “Not Active”.
With `C[C@]12C=CC(=O)C=C1CC[C@H]1[C@@H]3C[C@@H](O)[C@](O)(C(=O)CO)[C@@]3(C)C[C@H](O)[C@@]12F` [TRIAMCINOLONE] the IC50 was “Not Active”.

Biological target: T3, Receptor-type tyrosine-protein phosphatase C (Homo sapiens, UniProt P08575);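 also: inhibition of CD45 enzyme activity measured using DiFMUP as substrate; in other assays of this panel Not Active means under 50% inhibition at 10 µM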
T3 sequence (P08575 whole entry): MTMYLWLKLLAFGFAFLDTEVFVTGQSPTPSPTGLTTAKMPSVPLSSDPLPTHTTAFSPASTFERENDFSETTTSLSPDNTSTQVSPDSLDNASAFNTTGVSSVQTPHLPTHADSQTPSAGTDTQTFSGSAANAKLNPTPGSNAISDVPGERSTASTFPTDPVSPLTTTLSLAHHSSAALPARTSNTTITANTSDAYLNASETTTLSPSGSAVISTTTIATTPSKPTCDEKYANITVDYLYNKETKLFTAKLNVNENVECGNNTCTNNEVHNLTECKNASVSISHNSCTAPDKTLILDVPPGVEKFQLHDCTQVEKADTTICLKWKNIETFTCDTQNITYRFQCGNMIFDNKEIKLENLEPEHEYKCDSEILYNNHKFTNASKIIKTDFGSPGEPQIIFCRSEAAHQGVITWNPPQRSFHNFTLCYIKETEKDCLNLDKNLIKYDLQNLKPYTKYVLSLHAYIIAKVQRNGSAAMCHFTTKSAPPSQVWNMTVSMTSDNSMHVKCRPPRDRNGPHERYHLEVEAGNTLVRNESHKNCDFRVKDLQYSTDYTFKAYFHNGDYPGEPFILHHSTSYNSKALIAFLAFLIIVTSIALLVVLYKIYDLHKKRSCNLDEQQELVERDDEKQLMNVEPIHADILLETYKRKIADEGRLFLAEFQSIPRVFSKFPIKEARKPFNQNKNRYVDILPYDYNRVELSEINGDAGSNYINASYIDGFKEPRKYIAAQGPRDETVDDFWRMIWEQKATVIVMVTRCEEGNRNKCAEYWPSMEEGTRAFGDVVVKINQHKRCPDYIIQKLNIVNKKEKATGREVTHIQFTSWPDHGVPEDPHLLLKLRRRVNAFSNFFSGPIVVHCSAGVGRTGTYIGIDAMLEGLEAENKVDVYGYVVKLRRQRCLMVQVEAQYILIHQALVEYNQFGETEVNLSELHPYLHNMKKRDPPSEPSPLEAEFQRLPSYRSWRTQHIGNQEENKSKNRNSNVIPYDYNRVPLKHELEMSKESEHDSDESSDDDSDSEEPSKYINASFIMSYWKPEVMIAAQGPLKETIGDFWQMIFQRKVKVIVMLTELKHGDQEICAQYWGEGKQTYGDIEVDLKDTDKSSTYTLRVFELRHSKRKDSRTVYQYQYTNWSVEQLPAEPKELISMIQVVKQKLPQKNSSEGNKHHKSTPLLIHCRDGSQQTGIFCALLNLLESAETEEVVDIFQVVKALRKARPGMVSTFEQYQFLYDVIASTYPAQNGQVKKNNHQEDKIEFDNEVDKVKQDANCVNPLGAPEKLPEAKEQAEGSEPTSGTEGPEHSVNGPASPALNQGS
Design: species or system Escherichia coli
Details: not given
With `CCc1ccc(CCOc2ccc(CC3SC(=O)NC3=O)cc2)nc1` (stereo not given) [PIOGLITAZONE] the IC50 was “Not Active”.
For `CCCNC(C)C(=O)Nc1ccccc1C` (stereo not given) [PRILOCAINE], the IC50 was “Not Active”.
With `CCN(CC)CCNC(=O)c1ccc(N)cc1` [PROCAINAMIDE] the IC50 was “Not Active”.
For `CCN(CC)CCCC(C)Nc1c2ccc(Cl)cc2nc2ccc(OC)cc12` (stereo not given) [QUINACRINE], the IC50 was “Not Active”.
With `C[C@]12C=CC(=O)C=C1CC[C@H]1[C@@H]3C[C@@H](O)[C@](O)(C(=O)CO)[C@@]3(C)C[C@H](O)[C@@]12F` [TRIAMCINOLONE] the IC50 was “Not Active”.

Biological target: T4, Cytochrome P450 1A2 (Homo sapiens, UniProt P05177); also: in other assays of this panel Not Active means under 50% inhibition at 10 µM
T4 sequence (P05177 whole entry): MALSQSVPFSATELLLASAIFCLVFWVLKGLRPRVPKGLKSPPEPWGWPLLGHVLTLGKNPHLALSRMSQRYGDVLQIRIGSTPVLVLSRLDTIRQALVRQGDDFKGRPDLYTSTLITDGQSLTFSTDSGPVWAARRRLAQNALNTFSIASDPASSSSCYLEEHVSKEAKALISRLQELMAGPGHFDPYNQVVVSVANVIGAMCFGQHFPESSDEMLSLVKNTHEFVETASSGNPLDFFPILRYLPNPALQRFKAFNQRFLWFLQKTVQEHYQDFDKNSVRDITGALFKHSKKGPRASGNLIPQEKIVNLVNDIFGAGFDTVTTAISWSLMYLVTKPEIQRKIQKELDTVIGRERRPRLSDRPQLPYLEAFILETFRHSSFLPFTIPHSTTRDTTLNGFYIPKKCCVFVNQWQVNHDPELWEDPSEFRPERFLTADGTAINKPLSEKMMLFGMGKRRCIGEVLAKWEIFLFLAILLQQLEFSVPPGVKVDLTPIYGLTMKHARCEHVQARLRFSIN
Details: bti-tn-5b1-4
With `CCc1ccc(CCOc2ccc(CC3SC(=O)NC3=O)cc2)nc1` (stereo not given) [PIOGLITAZONE] the IC50 was “Not Active” and the Ki was “Not Active”.
For `CCCNC(C)C(=O)Nc1ccccc1C` (stereo not given) [PRILOCAINE], the IC50 was “Not Active” and the Ki was “Not Active”.
For `CCN(CC)CCNC(=O)c1ccc(N)cc1` [PROCAINAMIDE], the IC50 was “Not Active” and the Ki was “Not Active”.
With `CCN(CC)CCCC(C)Nc1c2ccc(Cl)cc2nc2ccc(OC)cc12` (stereo not given) [QUINACRINE] the IC50 was “Not Active” and the Ki was “Not Active”.
For `C[C@]12C=CC(=O)C=C1CC[C@H]1[C@@H]3C[C@@H](O)[C@](O)(C(=O)CO)[C@@]3(C)C[C@H](O)[C@@]12F` [TRIAMCINOLONE], the IC50 was “Not Active” and the Ki was “Not Active”.
